Laboratory results from patent US11414424B2, “Cardiac sarcomere inhibitors” (Cytokinetics, Inc., priority 2018, dated 2022).

Tested on: bovine cardiac myofibrils
Experiment: Myofibril assay: PK/LDH-coupled steady-state ATPase activity of skinned bovine cardiac myofibrils
Type: biochemical
Settings: Ca2+ activating to 75% of maximal rate
Outline: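 Steady-state ATPase of detergent-skinned bovine left-ventricular myofibrils (1 mg/mL), PK/LDH-coupled NADH read at 340 nm, in PIPES/MgCl2 buffer pH 6.8 with 50 μM ATP, 0.6 mM EGTA and CaCl2 set for 50% or 75% activation. Inhibition of activity measured.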

Row | Compound | CDMF75 IC15 [µM]
1 | Cc1cc(Cl)cnc1N1CC(=O)N(Cc2ccc(C(F)(F)F)cc2)C(C2(C)COC2)C1=O (centres unmarked) [Compound 652, 1-(5-chloro-3-methylpyridin-2-yl)-3-(3-methyloxetan-3-yl)-4-(4-(trifluoromethyl)-benzyl)piperazine-2,5-dione] | 9.0
2 | CC(=O)N1CC(C2C(=O)N(c3ncc(Cl)cc3C)CC(=O)N2Cc2ccc(C(F)(F)F)cc2)C1 (centres unmarked) [Compound 653, 3-(1-acetylazetidin-3-yl)-1-(5-chloro-3-methylpyridin-2-yl)-4-(4-(trifluoromethyl)-benzyl)piperazine-2,5-dione] | 19.9
3 | Cc1cc(Cl)cnc1N1CC(=O)N(Cc2ccc(Cl)cc2)C(C2COC2)C1=O (centres unmarked) [Compound 654, 1-(5-chloro-3-methylpyridin-2-yl)-4-(4-chlorobenzyl)-3-(oxetan-3-yl)piperazine-2,5-dione] | 5.3
4 | Cc1cc(Cl)cnc1N1CC(=O)N(Cc2ccc(Cl)cc2)C(CC2COC2)C1=O (centres unmarked) [Compound 655, 1-(5-chloro-3-methylpyridin-2-yl)-4-(4-chlorobenzyl)-3-(oxetan-3-ylmethyl)-piperazine-2,5-dione] | 7.0
5 | CC1(CCC(N)=O)C(=O)N(c2ncc(Cl)cc2F)CC(=O)N1Cc1ccc(C(F)(F)F)cc1 (centres unmarked) [Compound 656, 3-(4-(5-chloro-3-fluoro-pyridin-2-yl)-2-methyl-3,6-dioxo-1-(4-(trifluoro-methyl)benzyl)piperazin-2-yl)propanamide] | 9.9
6 | CC1(C(F)F)C(=O)N(c2ncc(Cl)cc2F)CC(=O)N1Cc1ccc(C(F)(F)F)cc1 (centres unmarked) [Compound 657, 1-(5-chloro-3-fluoropyridin-2-yl)-3-(difluoromethyl)-3-methyl-4-(4-(trifluoro-methyl)-benzyl)piperazine-2,5-dione] | 1.4
7 | Cc1cc(Cl)cnc1N1CC(=O)N(Cc2ccc(Cl)cc2)[C@@H](C(C)C)C1=O [Compound 660, (S)-1-(5-chloro-3-methylpyridin-2-yl)-4-(4-chlorobenzyl)-3-isopropyl-piperazine-2,5-dione] | 0.84
8 | CC(=O)N1CC(CC2C(=O)N(c3ncc(Cl)cc3F)CC(=O)N2Cc2ccc(C(F)(F)F)cc2)C1 (centres unmarked) [Compound 661, 3-((1-acetylazetidin-3-yl)methyl)-1-(5-chloro-3-fluoropyridin-2-yl)-4-(4-(trifluoromethyl)benzyl)-piperazine-2,5-dione] | 17.0
9 | CC(=O)N1CC(CC2C(=O)N(c3ncc(Cl)cc3F)CC(=O)N2Cc2ccc(Cl)cc2)C1 (stereo not drawn) [Compound 662, 3-((1-acetylazetidin-3-yl)methyl)-l-(5-chloro-3-fluoropyridin-2-yl)-4-(4-chlorobenzyl)piperazine-2,5-dione] | 16.4
10 | Cc1cc(Cl)cnc1N1CC(=O)N(Cc2ccc(Cl)cc2)C(C2(C)COC2)C1=O (centres unmarked) [Compound 663, 1-(5-chloro-3-methylpyridin-2-yl)-4-(4-chlorobenzyl)-3-(3-methyloxetan-3-yl)-piperazine-2,5-dione] | 7.3
11 | Cc1ccc(CN2C(=O)CN(c3ncc(Cl)cc3F)C(=O)C2C2COC2)cc1F (centres unmarked) [Compound 664, 1-(5-chloro-3-fluoropyridin-2-yl)-4-(3-fluoro-4-methylbenzyl)-3-(oxetan-3-yl)piperazine-2,5-dione] | 2.9
12 | CCc1ccc(CN2C(=O)CN(c3ncc(Cl)cc3F)C(=O)C2C2COC2)cc1 (centres unmarked) [Compound 665, 1-(5-chloro-3-fluoropyridin-2-yl)-4-(4-ethylbenzyl)-3-(oxetan-3-yl)piperazine-2,5-dione] | 7.3
13 | Cc1ccc(CN2C(=O)CN(c3ncc(Cl)cc3F)C(=O)C2C2COC2)cc1 (centres unmarked) [Compound 666, 1-(5-chloro-3-fluoropyridin-2-yl)-4-(4-methylbenzyl)-3-(oxetan-3-yl)piperazine-2,5-dione] | 2.3
14 | Cc1cc(CN2C(=O)CN(c3ncc(Cl)cc3F)C(=O)C2C2COC2)ccc1F (centres unmarked) [Compound 667, 1-(5-chloro-3-fluoropyridin-2-yl)-4-(4-fluoro-3-methyl-benzyl)-3-(oxetan-3-yl)-piperazine-2,5-dione] | 1.1
15 | O=C1C(C2COC2)N(Cc2ccc(F)c(Cl)c2)C(=O)CN1c1ncc(Cl)cc1F (centres unmarked) [Compound 668, 1-(5-chloro-3-fluoropyridin-2-yl)-4-(3-chloro-4-fluorobenzyl)-3-(oxetan-3-yl)piperazine-2,5-dione] | 1.4
16 | O=C1C(C2CCSCC2)N(Cc2ccc(C(F)(F)F)cc2)C(=O)CN1c1ncc(Cl)cc1F (centres unmarked) [Compound 687, 1-(5-chloro-3-fluoropyridin-2-yl)-3-(tetrahydro-2H-thiopyran-4-yl)-4-(4-(trifluoromethyl)benzyl)-piperazine-2,5-dione] | 6.2
17 | O=C1C(C2CCOCC2)N(Cc2ccc(C(F)(F)F)cc2)C(=O)CN1c1ncc(Cl)cc1F (centres unmarked) [Compound 688, 1-(5-chloro-3-fluoropyridin-2-yl)-3-(tetrahydro-2H-pyran-4-yl)-4-(4-(trifluoro-methyl)benzyl)piperazine-2,5-dione] | 3.7
18 | O=C1C(C2CCS(=O)(=O)CC2)N(Cc2ccc(C(F)(F)F)cc2)C(=O)CN1c1ncc(Cl)cc1F (centres unmarked) [Compound 689, 1-(5-chloro-3-fluoropyridin-2-yl)-3-(1,1-dioxidotetra-hydro-2H-thiopyran-4-yl)-4-(4-(trifluoromethyl)-benzyl)piperazine-2,5-dione] | 27.9

Row | Compound | CDMF75 IC15 [µM]
19 | O=C1C(C2COC2)N(Cc2ccc(F)cc2)C(=O)CN1c1ccc(Br)cc1F (centres unmarked) [Compound 700, 1-(4-bromo-2-fluoro-phenyl)-4-(4-fluorobenzyl)-3-(oxetan-3-yl)piperazine-2,5-dione] | 3.4
20 | CC(=O)N1CC2(C1)C(=O)N(c1ccc(-c3ncon3)cc1F)CC(=O)N2Cc1ccc(C(F)(F)F)cc1 [Compound 701, 2-acetyl-8-(2-fluoro-4-(1,2,4-oxadiazol-3-yl)phenyl)-5-(4-(trifluoromethyl)benzyl)-2,5,8-triazaspiro[3.5]nonane-6,9-dione] | 3.9
21 | CC(=O)N1CC2(C1)C(=O)N(c1ccc(-c3noc(C)n3)cc1F)CC(=O)N2Cc1ccc(C(F)(F)F)cc1 [Compound 702] | 25.5
22 | N#Cc1ccc(N2CC(=O)N(Cc3ccc(F)cc3)C(C3COC3)C2=O)c(F)c1 (centres unmarked) [Compound 706, 3-fluoro-4-(4-(4-fluoro-benzyl)-3-(oxetan-3-yl)-2,5-dioxopiperazin-1-yl)benzonitrile] | 4.5
23 | O=C1C(C2COC2)N(Cc2ccc(F)cc2)C(=O)CN1c1ncc(Br)cc1F (centres unmarked) [Compound 707, 1-(5-bromo-3-fluoropyridin-2-yl)-4-(4-fluorobenzyl)-3-(oxetan-3-yl)piperazine-2,5-dione] | 2.9
24 | O=C1C(C2COC2)N(Cc2ccc(Cl)cc2)C(=O)CN1c1ncc(Br)cc1F (centres unmarked) [Compound 708, 1-(5-bromo-3-fluoropyridin-2-yl)-4-(4-chlorobenzyl)-3-(oxetan-3-yl)piperazine-2,5-dione] | 1.4
25 | O=C1C(C2COC2)N(Cc2ccc(C(F)(F)F)cc2)C(=O)CN1c1ncc(OC(F)F)cc1F (centres unmarked) [Compound 711, 1-(5-(difluoromethoxy)-3-fluoropyridin-2-yl)-3-(oxetan-3-yl)-4-(4-(trifluoromethyl)benzyl)-piperazine-2,5-dione] | 24.6
26 | Cc1cc(Cl)cnc1N1CC(=O)N(Cc2ccc(F)cc2)C(C2COC2)C1=O (centres unmarked) [Compound 714, 1-(5-chloro-3-methylpyridin-2-yl)-4-(4-fluorobenzyl)-3-(oxetan-3-yl)piperazine-2,5-dione] | 12.4
27 | Cc1cc(Cl)cnc1N1CC(=O)N(Cc2ccc(F)c(Cl)c2)C(C2COC2)C1=O (centres unmarked) [Compound 717, 1-(5-chloro-3-methyl-pyridin-2-yl)-4-(3-chloro-4-fluorobenzyl)-3-(oxetan-3-yl)piperazine-2,5-dione] | 7.3
28 | Cc1cc(Cl)cnc1N1CC(=O)N(Cc2ccc(F)c(F)c2)C(C2COC2)C1=O (centres unmarked) [Compound 720, 1-(5-chloro-3-methyl-pyridin-2-yl)-4-(3,4-difluorobenzyl)-3-(oxetan-3-yl)piperazine-2,5-dione] | 9.2
29 | C=Cc1cnc(N2CC(=O)N(Cc3ccc(Cl)cc3)C(C3COC3)C2=O)c(F)c1 (centres unmarked) [Compound 723, 4-(4-chlorobenzyl)-1-(3-fluoro-5-vinylpyridin-2-yl)-3-(oxetan-3-yl)piperazine-2,5-dione] | 7.1
30 | Cc1ccc(CN2C(=O)CN(c3ncc(Cl)cc3C)C(=O)C2C2COC2)cc1F (centres unmarked) [Compound 724, 1-(5-chloro-3-methyl-pyridin-2-yl)-4-(3-fluoro-4-methylbenzyl)-3-(oxetan-3-yl)piperazine-2,5-dione] | 13.8
31 | Cc1cc(CN2C(=O)CN(c3ncc(Cl)cc3C)C(=O)C2C2COC2)ccc1F (centres unmarked) [Compound 727, 1-(5-chloro-3-methyl-pyridin-2-yl)-4-(4-fluoro-3-methylbenzyl)-3-(oxetan-3-yl)piperazine-2,5-dione] | 3.2
32 | Cc1cc(Cl)cnc1N1CC(=O)N(Cc2ccc(Cl)c(F)c2)C(C2COC2)C1=O (centres unmarked) [Compound 730, 4-(4-chloro-3-fluoro-benzyl)-1-(5-chloro-3-methylpyridin-2-yl)-3-(oxetan-3-yl)-piperazine-2,5-dione] | 3.4
33 | Cc1ccc(CN2C(=O)CN(c3ncc(Cl)cc3C)C(=O)C2C2COC2)cc1 (centres unmarked) [Compound 733, 1-(5-chloro-3-methyl-pyridin-2-yl)-4-(4-methyl-benzyl)-3-(oxetan-3-yl)-piperazine-2,5-dione] | 11.8
34 | N#Cc1cnc(N2CC(=O)N(Cc3ccc(C(F)(F)F)cc3)C(C3COC3)C2=O)c(F)c1 (centres unmarked) [Compound 736, 5-fluoro-6-(3-(oxetan-3-yl)-2,5-dioxo-4-(4-(trifluoromethyl)benzyl)-piperazin-1-yl)nicotinonitrile] | 2.0
35 | O=C1C([C@H]2C[C@@H](O)C2)N(Cc2ccc(C(F)(F)F)cc2)C(=O)CN1c1ncc(Cl)cc1F (some centres unmarked) [Compound 739, 1-(5-chloro-3-fluoropyridin-2-yl)-3-((1 s,3s)-3-hydroxycyclobutyl)-4-(4-(trifluoromethyl)benzyl)piperazine-2,5-dione] | 2.2
